In brackets after ≈: the same amount, converted by molar mass.
Key:
[1] = tested on: Mycobacterium tuberculosis; assay: Antitubercular activity against dormant Mycobacterium tuberculosis H37Ra assessed as growth inhibition at 30 ug/mL by XTT reduction menadione assay; assay type: functional; details: read-out: GI
[2] = Cytotoxicity against human A549 cells at 30 ug/mL by MTT assay; assay type: cell-based; details: read-out: INH
[3] = Cytotoxicity against human A549 cells at 10 ug/mL by MTT assay; assay type: cell-based; details: read-out: INH
[4] = tested on: Mycobacterium bovis BCG str. ATCC 35743; assay: Antitubercular activity against dormant Mycobacterium bovis BCG ATCC 35743 assessed as growth inhibition at 30 ug/mL by NR assay; assay type: functional
[5] = tested on: Mycobacterium bovis BCG str. ATCC 35743; assay: Antitubercular activity against dormant Mycobacterium bovis BCG ATCC 35743 assessed as growth inhibition at 10 ug/mL by NR assay; assay type: functional
[6] = Cytotoxicity against human HCT116 cells at 10 ug/mL by MTT assay; assay type: cell-based, HCT-116; details: read-out: INH
[7] = Cytotoxicity against human A549 cells at 3 ug/mL by MTT assay; assay type: cell-based; details: read-out: INH
[8] = (§1) Antitubercular activity against dormant Mycobacterium bovis BCG ATCC 35743 by NR assay; assay type: functional, Mycobacterium bovis BCG str. ATCC 35743
[9] = tested on: Mycobacterium bovis BCG str. ATCC 35743; assay: as §1; assay type: functional
[10] = tested on: Mycobacterium tuberculosis; assay: Antitubercular activity against dormant Mycobacterium tuberculosis H37Ra assessed as growth inhibition at 10 ug/mL by XTT reduction menadione assay; assay type: functional; details: read-out: GI
[11] = Cytotoxicity against human MCF7 cells at 30 ug/mL by MTT assay; assay type: cell-based; details: read-out: INH
[12] = tested on: Mycobacterium tuberculosis; assay: Antitubercular activity against dormant Mycobacterium tuberculosis H37Ra assessed as growth inhibition at 3 ug/mL by XTT reduction menadione assay; assay type: functional; details: read-out: GI
[13] = Cytotoxicity against human MCF7 cells at 3 ug/mL by MTT assay; assay type: cell-based; details: read-out: INH
[14] = tested on: Mycobacterium tuberculosis; assay: Antitubercular activity against dormant Mycobacterium tuberculosis H37Ra by XTT reduction menadione assay; assay type: functional, organism-based
[15] = Cytotoxicity against human MCF7 cells at 10 ug/mL by MTT assay; assay type: cell-based; details: read-out: INH
[16] = Cytotoxicity against human HCT116 cells at 30 ug/mL by MTT assay; assay type: cell-based, HCT-116; details: read-out: INH
[17] = tested on: Mycobacterium bovis BCG str. ATCC 35743; assay: Antitubercular activity against dormant Mycobacterium bovis BCG ATCC 35743 assessed as growth inhibition at 3 ug/mL by NR assay; assay type: functional
[18] = Cytotoxicity against human HCT116 cells at 3 ug/mL by MTT assay; assay type: cell-based, HCT-116; details: read-out: INH
Staphylococcus aureus = assay: Antibacterial activity against Staphylococcus aureus after 18 hrs by broth dilution method; assay type: functional, organism-based
Bacillus subtilis = assay: Antibacterial activity against Bacillus subtilis after 18 hrs by broth dilution method; assay type: functional, organism-based
Escherichia coli = assay: Antibacterial activity against Escherichia coli after 18 hrs by broth dilution method; assay type: functional, organism-based
Pseudomonas = assay: Antibacterial activity against Pseudomonas after 18 hrs by broth dilution method; assay type: functional, organism-based

SMILES | inhibition of growth at 30 µg/mL [1] | cytotoxicity at 30 ug/mL [2] | cytotoxicity at 10 ug/mL [3] | growth inhibition (GI) [4] | growth inhibition (GI) [5] | cytotoxicity at 10 ug/mL [6] | cytotoxicity at 3 ug/mL [7] | IC50 [8] | IC90 [9] | inhibition of growth at 10 µg/mL [10] | cytotoxicity at 30 ug/mL [11] | inhibition of growth at 3 µg/mL [12] | cytotoxicity at 3 ug/mL [13] | IC50 [14] | IC90 [14] | cytotoxicity at 10 ug/mL [15] | cytotoxicity at 30 ug/mL [16] | growth inhibition (GI) [17] | cytotoxicity at 3 ug/mL [18] | also measured
O=C1CSC(c2ccc(Cl)cc2)N1c1ccc(Cl)cc1 (stereo not given) | -19.8% | 0% | 0% | -0.8% | 0% | 1.3% | 0% | > 30 µg/mL | > 30 µg/mL | 24.1% | 14.8% | 11.8% | 14.5% | > 30 µg/mL | > 30 µg/mL | 16.6% | 15.9% | -20.2% | -8.1% | 
O=C1CSC(c2ccc(F)cc2)N1c1ccc(Cl)cc1 (stereo not given) | 30.2% | 4.9% | 0% | -1.3% | -3.8% | 18.6% | -7% | > 30 µg/mL | > 30 µg/mL | -14.6% | 43.7% | 8.8% | 32.2% | > 30 µg/mL | > 30 µg/mL | 38.1% | 50.4% | -3.2% | 9.4% | 
COc1ccc(C2SCC(=O)N2c2ccc(Cl)cc2)cc1 (stereo not given) | 9.5% | 0% | 0% | 1.6% | -0.7% | -2.3% | -4% | > 30 µg/mL | > 30 µg/mL | 18% | 38.6% | 37.6% | 0% | > 30 µg/mL | > 30 µg/mL | 0% | 12% | 5.3% | -2.9% | 
Cc1ccc(N2C(=O)CSC2c2ccc([N+](=O)[O-])cc2)cc1 (stereo not given) | 14.4% | -10.3% | 0% | -7.1% | -6.1% | -14.6% | -11.3% | > 30 µg/mL | > 30 µg/mL | -5.4% | 45.6% | 21.2% | 34.6% | > 30 µg/mL | > 30 µg/mL | 38.8% | -12.4% | -2% | -16.1% | 
Cc1ccc(N2C(=O)CSC2c2ccccc2)cc1 (stereo not given) | -0.7% | -15.9% | 0% | 39.7% | 4.5% | 20.5% | 0% | > 30 µg/mL | > 30 µg/mL | -24.3% | 29.2% | -21.6% | -40.6% | > 30 µg/mL | > 30 µg/mL | 8.4% | 21.6% | 61.6% | 16.1% | 
Cc1ccc(C2SCC(=O)N2c2ccccc2)cc1 (stereo not given) | 17.8% | 27.8% | -12.6% | 16.6% | 0.2% | -11.9% | -10.3% | > 30 µg/mL | > 30 µg/mL | 31% | 40.7% | 12% | 0% | > 30 µg/mL | > 30 µg/mL | 16.9% | -9.8% | 2% | -25.8% | 
NC[C@H]1O[C@H](O[C@H]2[C@H](O)[C@@H](O[C@H]3O[C@H](CO)[C@@H](O)[C@H](N)[C@H]3O)[C@H](N)C[C@@H]2N)[C@H](O)[C@@H](O)[C@@H]1O [KANAMYCIN] |  |  |  |  |  |  |  |  |  |  |  |  |  |  |  |  |  |  |  | IC50 (Staphylococcus aureus): > 30 µg/mL; MIC (Staphylococcus aureus): 16 µg/mL (≈ 33 µM); IC50 (Bacillus subtilis): 1.35 µg/mL (≈ 2.79 µM); MIC (Bacillus subtilis): 0.25 µg/mL (≈ 0.516 µM); IC50 (Escherichia coli): 1.62 µg/mL (≈ 3.34 µM); MIC (Escherichia coli): 0.67 µg/mL (≈ 1.38 µM); IC50 (Pseudomonas): 0.49 µg/mL (≈ 1.01 µM); MIC (Pseudomonas): 0.012 µg/mL (≈ 0.0248 µM)
NNC(=O)c1ccncc1 [ISONIAZID] |  |  |  |  |  |  |  | 0.0023 µg/mL (≈ 0.0168 µM) | 0.045 µg/mL (≈ 0.328 µM) |  |  |  |  |  | 0.075 µg/mL (≈ 0.547 µM) |  |  |  |  | 

From ChEMBL document CHEMBL3779788, “Facile synthesis of 1,3-thiazolidin-4-ones as antitubercular agents” (Bioorg Med Chem Lett, 2016)
